Experimental data as given in US20070066682A1, “Arylalkylamine vanadium (V) salts for the treatment and/or prevention of Diabetes mellitus” (priority 2005, published 2007).

Legend:
mouse SSAO = target: T1, mouse SSAO (Mus musculus, UniProt O70423); assay: SSAO activity, hydrogen peroxide production relative to benzylamine (mouse); assay type: biochemical; conditions: compound at 100 μM
T1 sequence (O70423 1-765): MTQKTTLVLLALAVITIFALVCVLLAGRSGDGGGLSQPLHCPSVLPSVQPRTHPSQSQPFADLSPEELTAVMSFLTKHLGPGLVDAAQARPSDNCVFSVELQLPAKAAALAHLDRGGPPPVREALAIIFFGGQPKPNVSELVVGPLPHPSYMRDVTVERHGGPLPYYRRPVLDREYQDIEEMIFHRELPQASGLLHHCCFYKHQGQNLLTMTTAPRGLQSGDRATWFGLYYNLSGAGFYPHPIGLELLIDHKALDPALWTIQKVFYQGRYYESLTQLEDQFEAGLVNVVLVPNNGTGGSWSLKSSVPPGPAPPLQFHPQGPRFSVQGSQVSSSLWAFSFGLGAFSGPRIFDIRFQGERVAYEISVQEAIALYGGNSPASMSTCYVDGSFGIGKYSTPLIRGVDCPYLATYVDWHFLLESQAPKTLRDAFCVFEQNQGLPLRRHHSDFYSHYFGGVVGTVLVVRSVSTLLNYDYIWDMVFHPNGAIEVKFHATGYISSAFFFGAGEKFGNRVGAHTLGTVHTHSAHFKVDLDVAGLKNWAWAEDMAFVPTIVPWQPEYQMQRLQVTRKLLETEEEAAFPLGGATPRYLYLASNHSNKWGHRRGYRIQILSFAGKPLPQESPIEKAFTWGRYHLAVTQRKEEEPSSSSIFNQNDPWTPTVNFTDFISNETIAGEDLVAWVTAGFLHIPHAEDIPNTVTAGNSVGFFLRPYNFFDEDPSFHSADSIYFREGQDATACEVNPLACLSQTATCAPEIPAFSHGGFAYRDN
Procedure: (§1) The continuous spectrophotometric detection of SSAO-dependent H2O2 production based on a peroxidase-coupled reaction was performed as previously described by Abella et al. (2004, Diabetologia 47: 429-438) and following the procedure described by Holt et al., (1997, Anal. Biochem. 244: 384-392).
(§2) Compounds listed in Table 1 were prepared according to the methods described above, purity was determined by HPLC at 220 nm, molecular weight calculated by mass spectrometer. Human and mouse SSAO activity was determined by detecting the production of hydrogene peroxide in the presence of the different compounds present at 1 mM for human and 100 μM for mice activity measurements. Compounds in Table 2″ were similarly assayed. Values are means of percentages relative to benzylamine-related hydrogen production. Kinetic Parameters for select compounds are set forth in Table 3 (Mouse SSAO) and Table 4 (Human SSAO).

Human SSAO = target: T2, Human SSAO (Homo sapiens, UniProt Q16853); assay: SSAO activity, hydrogen peroxide production relative to benzylamine (human); assay type: biochemical; conditions: compound at 1 mM
T2 sequence (Q16853 1-763): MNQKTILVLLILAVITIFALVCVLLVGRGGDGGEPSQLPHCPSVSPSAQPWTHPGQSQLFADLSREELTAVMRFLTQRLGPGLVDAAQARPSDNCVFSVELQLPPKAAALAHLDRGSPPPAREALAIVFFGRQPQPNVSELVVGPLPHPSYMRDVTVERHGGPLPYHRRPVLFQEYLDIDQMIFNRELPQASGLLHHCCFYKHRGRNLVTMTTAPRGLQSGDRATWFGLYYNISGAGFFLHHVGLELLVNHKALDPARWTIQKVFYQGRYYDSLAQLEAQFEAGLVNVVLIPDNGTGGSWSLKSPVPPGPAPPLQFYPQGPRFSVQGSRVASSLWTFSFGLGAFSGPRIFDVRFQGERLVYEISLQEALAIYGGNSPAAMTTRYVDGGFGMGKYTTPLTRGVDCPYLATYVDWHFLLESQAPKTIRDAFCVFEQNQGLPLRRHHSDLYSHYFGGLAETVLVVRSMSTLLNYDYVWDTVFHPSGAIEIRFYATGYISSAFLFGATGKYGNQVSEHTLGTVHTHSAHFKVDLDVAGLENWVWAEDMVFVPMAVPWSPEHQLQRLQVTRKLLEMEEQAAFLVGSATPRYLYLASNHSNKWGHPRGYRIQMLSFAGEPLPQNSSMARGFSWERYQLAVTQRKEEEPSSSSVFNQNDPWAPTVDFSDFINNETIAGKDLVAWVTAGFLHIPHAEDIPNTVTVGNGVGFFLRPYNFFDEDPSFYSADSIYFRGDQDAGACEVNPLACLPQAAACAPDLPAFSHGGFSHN
Procedure: as §1, §2

| Structure (SMILES) | SSAO activity (% relative to benzylamine) Mouse (mouse SSAO) | SSAO activity (% relative to benzylamine) Human (Human SSAO) |
| --- | --- | --- |
| NCc1ccccc1 [Entry 1, Benzylamine, reference compound] | 100% | 100% |
| NCc1ccc(F)cc1 [Entry 3, (4-fluorophenyl)methanamine] | 77.20% | 31.70% |
| Cc1ccc(CN)cc1 [Entry 4, p-tolylmethanamine] | 0.00% | 0.00% |
| CCc1ccc(CN)cc1 [Entry 5] | 17.30% | 0.00% |
| CC(C)(C)c1ccc(CN)cc1 [Entry 6, (4-tert-butylphenyl)methanamine] | 1.00% | 0.00% |
| CC(C)c1ccc(CN)cc1 [Entry 7, (4-isopropylphenyl)methanamine] | 0.00% | 0.00% |
| NCc1ccc(C(F)(F)F)cc1 [Entry 8, (4-(trifluoromethyl)phenyl)methanamine] | 83.00% | 0.50% |
| NCc1ccc(OC(F)(F)F)cc1 [Entry 9, (4-(trifluoromethoxy)phenyl)methanamine] | 66.20% | 0.00% |
| COc1ccc(CN)c(OC)c1 [Entry 10, (2,4-dimethoxyphenyl)methanamine] | 0.00% | 0.00% |
| CCCCc1ccc(CN)cc1 [Entry 11, (4-butylphenyl)methanamine] | 27.00% | 0.00% |
| NCc1ccc(O)c(Br)c1 [Entry 13, 4-(aminomethyl)-2-bromophenol] | 0.00% | 0.00% |
| NCc1cccc([N+](=O)[O-])c1O [Entry 14, 2-(aminomethyl)-6-nitrophenol] | 5.47% | 0.11% |
| NCc1ccc(-c2ccccc2)cc1 [Entry 15, biphenyl-4-yl-methanamine] | 3.77% | 0.00% |
| Cc1ccc(CN)cc1F [Entry 16, (3-fluoro-4-methylphenyl)methanamine] | 33.49% | 7.07% |
| COc1cc(F)cc(CN)c1 [Entry 17, (3-fluoro-5-methoxyphenyl)methanamine] | 4.86% | 2.53% |
| COc1cccc(O)c1CN [Entry 19, 2-(aminomethyl)-3-methoxyphenol] | 0.00% | 0.00% |
| NCc1ccc(OCc2ccccc2)cc1 [Entry 20, (4-(benzyloxy)phenyl)methanamine] | 0.0% | 0.0% |
| NCc1cccc2c1OCCO2 [Entry 21, (2,3-dihydrobenzo-[b][1,4]dioxin-5-yl)methanamine] | 12.36% | 0.00% |
| COc1ccc(CN)cc1 [Entry 22, (4-methoxyphenyl)methanamine] | 4.56% | 0.00% |
| NCc1ccccc1F [Entry 23, (2-fluorophenyl)methanamine] | 44.0% | 1.3% |
| COc1cc(CN)cc(OC)c1 [Entry 24, (3,5-dimethoxyphenyl)methanamine] | 0.75% | 0.00% |
| NCc1ccc(CN)cc1 [Entry 25, 1,4-phenylene dimethanamine] | 0.00% | 0.00% |
